Measurements published in US11976083B2, “Inhibitors of peptidylarginine deiminases” (Gilead Sciences, Inc., priority 2020, dated 2024).

Target: T1, human PAD4 (Homo sapiens, UniProt Q9UM07)
T1 construct: human PAD4 (NM_012387), A2-P663, was PCR amplified; His-SUMO (N, cleaved yes); made in house; host or cells: E. coli BL21(DE3)
Experiment: In vitro PAD4 BAEE biochemical assay
Details: BAEE substrate 3 mM, 5 nM PAD4, 2 mM calcium chloride; geometric mean of multiple experiments
In short: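 Recombinant PAD4 (5 nM final) with 2 mM CaCl2 was preincubated with compound for 30 min at 25 °C in MOPS pH 7.6 buffer with DTT, then reacted with 3 mM BAEE for 2 h at 25 °C. Released ammonia was detected fluorimetrically with o-phthalaldehyde/DTT; IC50 from four-parameter fit, geometric mean of experiments.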

T1 sequence (Q9UM07 2-663): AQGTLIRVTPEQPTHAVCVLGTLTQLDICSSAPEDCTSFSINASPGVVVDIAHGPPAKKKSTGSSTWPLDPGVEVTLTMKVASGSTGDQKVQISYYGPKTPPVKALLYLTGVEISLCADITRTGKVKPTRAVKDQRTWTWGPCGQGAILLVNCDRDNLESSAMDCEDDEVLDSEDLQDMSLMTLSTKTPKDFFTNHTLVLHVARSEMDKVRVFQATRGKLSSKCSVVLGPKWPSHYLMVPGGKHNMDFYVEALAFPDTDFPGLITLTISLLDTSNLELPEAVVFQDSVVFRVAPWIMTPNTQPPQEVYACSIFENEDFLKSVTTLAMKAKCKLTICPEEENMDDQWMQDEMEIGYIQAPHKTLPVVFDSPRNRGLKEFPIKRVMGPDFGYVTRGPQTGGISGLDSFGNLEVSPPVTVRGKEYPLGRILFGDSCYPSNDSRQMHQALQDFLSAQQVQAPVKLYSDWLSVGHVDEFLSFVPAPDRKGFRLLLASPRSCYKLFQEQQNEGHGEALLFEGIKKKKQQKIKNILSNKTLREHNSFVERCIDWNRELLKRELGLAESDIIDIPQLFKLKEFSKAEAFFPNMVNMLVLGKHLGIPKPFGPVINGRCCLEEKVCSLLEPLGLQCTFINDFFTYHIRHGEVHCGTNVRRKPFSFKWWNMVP

SMILES | IC50 [nM]
COc1cc(C(=O)N2[C@H]3CC[C@@H]2[C@H](N)C3)cc2nc(-c3cc4ccc5nc4n3CCCCCCNc3ncccc3-5)n(C)c12 [Example 96, [(1˜{R},2˜{R},4˜{S})-2-amino-7-azabicyclo[2.2.1]heptan-7-yl]-[7-methoxy-1-methyl-2-(6,8,15,21-tetrazatetracyclo[13.5.2.0^{2,7}.0^{18,22}]docosa-1(21),2,4,6,16,18(22),19-heptaen-16-yl)benzimidazol-5-yl]methanone] | 3130
C[C@H]1NC(=O)[C@H]2[C@@H](CCCCCn3c(-c4nc5cc(C(=O)N[C@H]6CNCC[C@@H]6F)c(F)cc5n4C4CC4)cc4ccc1nc43)C2(F)F [Example 392, 1-cyclopropyl-2-[(2~{R},5~{R},7~{R})-6,6-difluoro-2-methyl-4-oxo-3,13,19-triazatetracyclo[11.5.2.0^{5,7}.0^{16,20}]icosa-1(19),14,16(20),17-tetraen-14-yl]-6-fluoro-~{N}-[(3~{S},4~{S})-4-fluoro-3-piperidyl]benzimidazole-5-carboxamide] | 22
COc1cc(C(=O)N2C[C@H](N)[C@@H]3CC[C@H]2C3)cc2nc(-c3cc4ccc5nc4n3CCCCCc3cc(C(F)(F)F)ncc3C(=O)N[C@@H]5C)n(C3CC3)c12 [Example 942, (2~{R})-17-[5-[(1~{S},4~{R},5~ {R})-4-amino-2-azabicyclo [3.2.1]octane-2-carbonyl]-1-cyclopropyl-7-methoxy-benzimidazol-2-yl]-2-methyl-8-(trifluoromethyl)-3,7,16,22-tetrazatetracyclo[14.5.2.0^ {5,10).0^{19,23}]tricosa-1(22), 5(10),6,8,17,19(23),20-heptaen-4-one] | 72
COc1cc(C(=O)N2[C@H]3CC[C@@H]2[C@H](N)C3)cc2nc(-c3cc4ccc5nc4n3CCCCCC[C@@H](OC)C(=O)N[C@@H]5C)c(C)n12 (single isomer, unassigned) [Example 334, (8−{R},11−{R})-17-[7-[(1−{R},2˜{R},4˜{S})-2-amino-7-azabicyclo[2.2.1]heptane-7-carbonyl]-5-methoxy-3-methyl-imidazo[1,2-a]pyridin-2-yl]-8-methoxy-11-methyl-1,10,19-triazatricyclo[10.5.2^{15,18}]nonadeca-12(19),13,15(18),16-tetraen-9-one] | 39
C[C@H]1NC(=O)[C@@H]2C[C@@]2(F)CCCCCn2c(-c3nc4cc(C(=O)N5C[C@H](N)[C@@H]6CC[C@H]5C6)ccc4n3C3CC3)cc3ccc1nc32 [Example 923, (2~{R},5~{S},7~{S})-14-[5-[(1~{S},4~{R},5~{R})-4-amino-2-azabicyclo[3.2.1]octane-2-carbonyl]-1-cyclopropyl-benzimidazol-2-yl]-7-fluoro-2-methyl-3,13,19-triazatetracyclo [11.5.2.0^{5,7}.0^{16,20}] icosa-1(19),14,16(20), 17-tetraen-4-one] | 24
COc1cc(C(=O)N2CCC[C@@H](N)C2)cc2nc(-c3cc4ccc5nc4n3CCCCCCc3cn(nn3)C5C)n(C)c12 (stereo partly shown) [Example 25, [(3˜{R})-3-amino-1-piperidyl]-[7-methoxy-1-methyl-2-(2-methyl-3,4,5,13,19-pentazatetracyclo[11.5.2.1^{3,6}.0^{16,20}]henicosa-1(19),4,6(21),14,16(20),17-hexaen-14-yl)benzimidazol-5-yl]methanone] | 775

Results, then the compound that gave them:

IC50 [nM] | SMILES
58 | COc1cc(C(=O)N2CC[C@@H](OC)[C@@H](N)C2)cc2nc(-c3cc4ccc5nc4n3CCCCCc3cccc(F)c3C(=O)N[C@@H]5C)n(C)c12 [Example 360, (2~{R})-17-[5-[(3~{S},4~{R})-3-amino-4-methoxy-piperidine-1-carbonyl]-7-methoxy-1-methyl-benzimidazol-2-yl]-6-fluoro-2-methyl-3,16,22-triazatetracyclo[14.5.2.0^{5,10}.0^{19,23}] tricosa-1(22),5,7,9,17,19(23),20-heptaen-4-one]
74 | COc1cc(C(=O)N2CC[C@@H](OC)[C@@H](N)C2)cc2nc(-c3cc4ccc5nc4n3CC(F)(F)CCC[C@@H]3C[C@@]3(C)C(=O)N[C@@H]5C)n(C)c12 [Example 585, (2~{R},5~{R},7~{R})-14-[5-[(3~{S},4~{R})-3-amino-4-methoxy-piperidine-1-carbonyl]-7-methoxy-1-methyl-benzimidazol-2-yl]-11,11-difluoro-2,5-dimethyl-3,13,19-triazatetracyclo[11.5.2.0^ {5,7}.0^{16,20}]icosa-1(19),14,16(20),17-tetraen-4-one]
130 | COc1cc(C(=O)N2C[C@H](N)[C@@H]3CC[C@H]2C3)cc2nc(-c3cc4ccc5nc4n3CC(F)(F)CCCC[C@](C)(C(F)(F)F)C(=O)N[C@@H]5C)n(C)c12 [Example 459, (8~{S},11~{R})-17-[5-[(1~{S},4~{R},5~{R})-4-amino-2-azabicyclo[3.2.1]octane-2-carbonyl]-7-methoxy-1-methyl-benzimidazol-2-yl]-3,3-difluoro-8,11-dimethyl-8-(trifluoromethyl)-1,10,19-triazatricyclo[10.5.2.0^{15,18}]nonadeca-12(19),13,15(18),16-tetraen-9-one]
30 | CO[C@@H]1CCN(C(=O)c2cc(F)c3c(c2)nc(-c2cc4ccc5nc4n2CCCCCc2nc(Cl)ccc2C(=O)N[C@@H]5C)n3C)C[C@@H]1N [Example 740, (2~{R})-17-[5-[(3~{S},4~ {R})-3-amino-4-methoxy-piperidine-1-carbonyl]-7-fluoro-1-methyl-benzimidazol-2-yl]-8-chloro-2-methyl-3,9,16,22-tetrazatetracyclo [14.5.2.0^{5,10}.0^{19,23}] tricosa-1(22),5(10),6,8,17,19(23),20-heptaen-4-one]
55 | COc1cc(C(=O)N2CCC[C@@H](N)[C@H]2C)cc2nc(-c3cc4ccc5nc4n3CCCCCc3nccnc3C(=O)N[C@@H]5C)n(C)c12 [Example 528, (2~{R})-17-[5-[(2~ {R},3~{R})-3-amino-2-methyl-piperidine-1-carbonyl]-7-methoxy-1-methyl-benzimidazol-2-yl]-2-methyl-3,6,9,16,22-pentazatetracyclo [14.5.2.0^{5,10}.0^{19, 23}]tricosa-1(22),5(10), 6,8,17,19(23),20-heptaen-4-one]
118 | COc1cc(C(=O)N2CC[C@H]3OCCN[C@H]3C2)cc2nc(-c3cc4ccc5nc4n3CC(F)(F)CCC[C@@H]3C[C@H]3C(=O)N[C@@H]5C)n(C)c12 [Example 803, (2~{R},5~{R},7~{R})-14-[5-[(4~{a}~{S},8~{a}~{R})-2,3,4,4~{a},5,7,8,8~{a}-octahydropyrido[4,3-b][1,4]oxazine-6-carbonyl]-7-methoxy-1-methyl-benzimidazol-2-yl]-11,11-difluoro-2-methyl-3,13,19-triazatetracyclo[11.5.2.0^ {5,7}.0^{16,20}]icosa-1(18),14,16,19-tetraen-4-one]
6490 | COc1cc(C(=O)N[C@H]2CNC[C@@H]2F)cc2nc(-c3cc4ccc5nc4n3CCCCCCC(C)(C)C(=O)N[C@@H]5C)n(C)c12 [Example 197, ~{N}-[(3~{S},4~{S})-4-fluoropyrrolidin-3-yl]-7-methoxy-1-methyl-2-[(11~{R})-8,8,11-trimethyl-9-oxo-1,10,19-triazatricyclo[10.5.2.0^{15,18}]nonadeca-12(19),13,15(18),16-tetraen-17-yl]benzimidazole-5-carboxamide]
